Laboratory results reported in patent US20090047221A1 (NIPRI LIMITED, priority 2004, published 2009).

Test system: cancer cell line MDA-MB-468
Assay: Combination index with known cancer drugs against proliferation (Calcusyn software)
Assay type: cell-based
In short: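 MTT proliferation assay: cells exposed continuously to drug for 96 h at 37° C, 5% CO2, screening range 1-200 μg/ml, then MTT 4 h, DMSO solubilisation, absorbance 570 nm. Synergy with known drugs given as combination index (Calcusyn).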

Compound: CCCCC/C=C\C/C=C\C/C=C\CCCCCOC(=O)c1ccc2c(c1O)C(=O)OC(C)C2 (racemic) [ALM-43, γ-Linolenyl Ester]
- Combination Index (Cisplatin 1 × 10^−2 mol/L, ALM compound 0.1 μg/ml): 0.063
- Combination Index (Cisplatin 1 × 10^−2 mol/L, ALM compound 0.5 μg/ml): 0.003
- Combination Index (Cisplatin 1 × 10^−2 mol/L, ALM compound 1.0 μg/ml): 0.007
- Combination Index (Cisplatin 1 × 10^−2 mol/L, ALM compound 5.0 μg/ml): 0.038
- Combination Index (Cisplatin 1 × 10^−3 mol/L, ALM compound 0.1 μg/ml): No
- Combination Index (Cisplatin 1 × 10^−3 mol/L, ALM compound 0.5 μg/ml): No
- Combination Index (Cisplatin 1 × 10^−3 mol/L, ALM compound 1.0 μg/ml): No
- Combination Index (Cisplatin 1 × 10^−3 mol/L, ALM compound 5.0 μg/ml): No
- Combination Index (Cisplatin 1 × 10^−4 mol/L, ALM compound 0.1 μg/ml): No
- Combination Index (Cisplatin 1 × 10^−4 mol/L, ALM compound 0.5 μg/ml): No
- Combination Index (Cisplatin 1 × 10^−4 mol/L, ALM compound 1.0 μg/ml): No
- Combination Index (Cisplatin 1 × 10^−4 mol/L, ALM compound 5.0 μg/ml): No
- Combination Index (Cisplatin 1 × 10^−5 mol/L, ALM compound 0.1 μg/ml): No
- Combination Index (Cisplatin 1 × 10^−5 mol/L, ALM compound 0.5 μg/ml): No
- Combination Index (Cisplatin 1 × 10^−5 mol/L, ALM compound 1.0 μg/ml): No
- Combination Index (Cisplatin 1 × 10^−5 mol/L, ALM compound 5.0 μg/ml): No
- Combination Index (Cisplatin 1 × 10^−6 mol/L, ALM compound 0.1 μg/ml): No
- Combination Index (Cisplatin 1 × 10^−6 mol/L, ALM compound 0.5 μg/ml): No
- Combination Index (Cisplatin 1 × 10^−6 mol/L, ALM compound 1.0 μg/ml): No
- Combination Index (Cisplatin 1 × 10^−6 mol/L, ALM compound 5.0 μg/ml): No
- Combination Index (Cisplatin 1 × 10^−7 mol/L, ALM compound 0.1 μg/ml): 0.636
- Combination Index (Cisplatin 1 × 10^−7 mol/L, ALM compound 0.5 μg/ml): 0.612
- Combination Index (Cisplatin 1 × 10^−7 mol/L, ALM compound 1.0 μg/ml): No
- Combination Index (Cisplatin 1 × 10^−7 mol/L, ALM compound 5.0 μg/ml): No
- Combination Index (Cisplatin 1 × 10^−8 mol/L, ALM compound 0.1 μg/ml): 0.199
- Combination Index (Cisplatin 1 × 10^−8 mol/L, ALM compound 0.5 μg/ml): No
- Combination Index (Cisplatin 1 × 10^−8 mol/L, ALM compound 1.0 μg/ml): No
- Combination Index (Cisplatin 1 × 10^−8 mol/L, ALM compound 5.0 μg/ml): No
- Combination Index (Cisplatin 1 × 10^−9 mol/L, ALM compound 0.1 μg/ml): 0.054
- Combination Index (Cisplatin 1 × 10^−9 mol/L, ALM compound 0.5 μg/ml): 0.536
- Combination Index (Cisplatin 1 × 10^−9 mol/L, ALM compound 1.0 μg/ml): No
- Combination Index (Cisplatin 1 × 10^−9 mol/L, ALM compound 5.0 μg/ml): No
- Combination Index (Doxorubicin 1 × 10^−4 mol/L, ALM compound 0.1 μg/ml): No
- Combination Index (Doxorubicin 1 × 10^−4 mol/L, ALM compound 0.5 μg/ml): No
- Combination Index (Doxorubicin 1 × 10^−4 mol/L, ALM compound 1.0 μg/ml): No
- Combination Index (Doxorubicin 1 × 10^−4 mol/L, ALM compound 5.0 μg/ml): No
- Combination Index (Doxorubicin 1 × 10^−5 mol/L, ALM compound 0.1 μg/ml): 0.385
- Combination Index (Doxorubicin 1 × 10^−5 mol/L, ALM compound 0.5 μg/ml): 0.700
- Combination Index (Doxorubicin 1 × 10^−5 mol/L, ALM compound 1.0 μg/ml): 0.278
- Combination Index (Doxorubicin 1 × 10^−5 mol/L, ALM compound 5.0 μg/ml): 0.457
- Combination Index (Etoposide 1 × 10^−4 mol/L, ALM compound 0.1 μg/ml): 0.399
- Combination Index (Etoposide 1 × 10^−4 mol/L, ALM compound 0.5 μg/ml): 0.289
- Combination Index (Etoposide 1 × 10^−4 mol/L, ALM compound 1.0 μg/ml): 0.418
- Combination Index (Etoposide 1 × 10^−4 mol/L, ALM compound 5.0 μg/ml): 0.474
- Combination Index (Etoposide 1 × 10^−5 mol/L, ALM compound 0.1 μg/ml): No
- Combination Index (Etoposide 1 × 10^−5 mol/L, ALM compound 0.5 μg/ml): No
- Combination Index (Etoposide 1 × 10^−5 mol/L, ALM compound 1.0 μg/ml): No
- Combination Index (Etoposide 1 × 10^−5 mol/L, ALM compound 5.0 μg/ml): No
- Combination Index (Etoposide 1 × 10^−6 mol/L, ALM compound 0.1 μg/ml): No
- Combination Index (Etoposide 1 × 10^−6 mol/L, ALM compound 0.5 μg/ml): 0.865
- Combination Index (Etoposide 1 × 10^−6 mol/L, ALM compound 1.0 μg/ml): No
- Combination Index (Etoposide 1 × 10^−6 mol/L, ALM compound 5.0 μg/ml): No
- Combination Index (Etoposide 1 × 10^−7 mol/L, ALM compound 0.1 μg/ml): 0.473
- Combination Index (Etoposide 1 × 10^−7 mol/L, ALM compound 0.5 μg/ml): 0.305
- Combination Index (Etoposide 1 × 10^−7 mol/L, ALM compound 1.0 μg/ml): No
- Combination Index (Etoposide 1 × 10^−7 mol/L, ALM compound 5.0 μg/ml): No
- Combination Index (Etoposide 1 × 10^−8 mol/L, ALM compound 0.1 μg/ml): 0.181
- Combination Index (Etoposide 1 × 10^−8 mol/L, ALM compound 0.5 μg/ml): 0.137
- Combination Index (Etoposide 1 × 10^−8 mol/L, ALM compound 1.0 μg/ml): No
- Combination Index (Etoposide 1 × 10^−8 mol/L, ALM compound 5.0 μg/ml): No
- Combination Index (Etoposide 1 × 10^−9 mol/L, ALM compound 0.1 μg/ml): 0.090
- Combination Index (Etoposide 1 × 10^−9 mol/L, ALM compound 0.5 μg/ml): 0.319
- Combination Index (Etoposide 1 × 10^−9 mol/L, ALM compound 1.0 μg/ml): No
- Combination Index (Etoposide 1 × 10^−9 mol/L, ALM compound 5.0 μg/ml): No
- Combination Index (Etoposide 1 × 10^−10 mol/L, ALM compound 0.1 μg/ml): 0.083
- Combination Index (Etoposide 1 × 10^−10 mol/L, ALM compound 0.5 μg/ml): 0.515
- Combination Index (Etoposide 1 × 10^−10 mol/L, ALM compound 1.0 μg/ml): No
- Combination Index (Etoposide 1 × 10^−10 mol/L, ALM compound 5.0 μg/ml): No
- Combination Index (Irinotecan 1 × 10^−3 mol/L, ALM compound 0.1 μg/ml): 0.088
- Combination Index (Irinotecan 1 × 10^−3 mol/L, ALM compound 0.5 μg/ml): 0.230
- Combination Index (Irinotecan 1 × 10^−3 mol/L, ALM compound 1.0 μg/ml): 0.438
- Combination Index (Irinotecan 1 × 10^−3 mol/L, ALM compound 5.0 μg/ml): 0.307
- Combination Index (Irinotecan 1 × 10^−4 mol/L, ALM compound 0.1 μg/ml): 0.019
- Combination Index (Irinotecan 1 × 10^−4 mol/L, ALM compound 0.5 μg/ml): 0.005
- Combination Index (Irinotecan 1 × 10^−4 mol/L, ALM compound 1.0 μg/ml): 0.040
- Combination Index (Irinotecan 1 × 10^−4 mol/L, ALM compound 5.0 μg/ml): 0.113
- Combination Index (Irinotecan 1 × 10^−5 mol/L, ALM compound 0.1 μg/ml): No
- Combination Index (Irinotecan 1 × 10^−5 mol/L, ALM compound 0.5 μg/ml): No
- Combination Index (Irinotecan 1 × 10^−5 mol/L, ALM compound 1.0 μg/ml): No
- Combination Index (Irinotecan 1 × 10^−5 mol/L, ALM compound 5.0 μg/ml): No
- Combination Index (Irinotecan 1 × 10^−6 mol/L, ALM compound 0.1 μg/ml): No
- Combination Index (Irinotecan 1 × 10^−6 mol/L, ALM compound 0.5 μg/ml): No
- Combination Index (Irinotecan 1 × 10^−6 mol/L, ALM compound 1.0 μg/ml): No
- Combination Index (Irinotecan 1 × 10^−6 mol/L, ALM compound 5.0 μg/ml): No
- Combination Index (Irinotecan 1 × 10^−7 mol/L, ALM compound 0.1 μg/ml): No
- Combination Index (Irinotecan 1 × 10^−7 mol/L, ALM compound 0.5 μg/ml): No
- Combination Index (Irinotecan 1 × 10^−7 mol/L, ALM compound 1.0 μg/ml): No
- Combination Index (Irinotecan 1 × 10^−7 mol/L, ALM compound 5.0 μg/ml): No
- Combination Index (Irinotecan 1 × 10^−8 mol/L, ALM compound 0.1 μg/ml): 0.514
- Combination Index (Irinotecan 1 × 10^−8 mol/L, ALM compound 0.5 μg/ml): 0.233
- Combination Index (Irinotecan 1 × 10^−8 mol/L, ALM compound 1.0 μg/ml): No
- Combination Index (Irinotecan 1 × 10^−8 mol/L, ALM compound 5.0 μg/ml): No
- Combination Index (Irinotecan 1 × 10^−9 mol/L, ALM compound 0.1 μg/ml): 0.701
- Combination Index (Irinotecan 1 × 10^−9 mol/L, ALM compound 0.5 μg/ml): 0.628
- Combination Index (Irinotecan 1 × 10^−9 mol/L, ALM compound 1.0 μg/ml): No
- Combination Index (Irinotecan 1 × 10^−9 mol/L, ALM compound 5.0 μg/ml): No
- Combination Index (Irinotecan 1 × 10^−11 mol/L, ALM compound 0.1 μg/ml): 0.172
- Combination Index (Irinotecan 1 × 10^−11 mol/L, ALM compound 0.5 μg/ml): 0.484
- Combination Index (Irinotecan 1 × 10^−11 mol/L, ALM compound 1.0 μg/ml): No
- Combination Index (Irinotecan 1 × 10^−11 mol/L, ALM compound 5.0 μg/ml): No
